Measurements published in patent EP4741390A1, “BIARYL RING COMPOUND, INTERMEDIATE THEREOF, PREPARATION METHOD THEREFOR AND USE THEREOF” (Hangzhou Synrx Therapeutics Biomedical Technology Co., Ltd., priority 2023, dated 2025).
Where two headings read alike, the source gives them in different places.

Columns and labels:
DLD1 wild type = experiment: Cell viability assay (CTG assay), DLD1 wild type cells; assay type: cell-based; conditions: Homo sapiens, DLD-1, 240 h; CellTiter Glo, read on Day 10, initial concentration 30 µM
Protocol: (§1) 2. Cell Viability Assay of Pol θ Inhibitor
(§2) The cell viability assay, i.e., the commonly used CTG assay, was conducted for the efficacy of the inhibitor in vitro using the CellTiter Glo reagent (Promega, G7573).

DLD1 BRCA2-/- cells = experiment: Cell viability assay (CTG assay), DLD1 BRCA2-/- cells; assay type: cell-based; conditions: Homo sapiens, DLD-1, 240 h; CellTiter Glo, read on Day 10, initial concentration 30 µM
Protocol: as §1, §2

[1] = target: helicase domain of the Pol θ protein (Homo sapiens, UniProt O75417); assay type: biochemical
Sequence of helicase domain of the Pol θ protein (O75417 102-554 limits assumed): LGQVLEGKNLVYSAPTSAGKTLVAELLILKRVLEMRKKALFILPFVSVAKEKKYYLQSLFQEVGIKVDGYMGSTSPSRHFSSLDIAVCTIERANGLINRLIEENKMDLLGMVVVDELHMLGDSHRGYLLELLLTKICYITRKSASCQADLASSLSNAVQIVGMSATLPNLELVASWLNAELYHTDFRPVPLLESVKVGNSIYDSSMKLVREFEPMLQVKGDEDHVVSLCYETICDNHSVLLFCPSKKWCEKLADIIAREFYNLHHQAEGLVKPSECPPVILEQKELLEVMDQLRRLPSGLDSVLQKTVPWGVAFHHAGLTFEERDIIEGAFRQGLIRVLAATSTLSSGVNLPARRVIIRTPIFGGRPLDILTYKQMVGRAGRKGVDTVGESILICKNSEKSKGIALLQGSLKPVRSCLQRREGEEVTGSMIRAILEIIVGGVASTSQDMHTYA
Protocol: Biochemical Activity Assay (ADP Glo Assay) of Pol θ Inhibitor
The specific assay method was as follows: • 1) The helicase domain of the Pol θ protein was purified by an insect system, to obtain the protein with a purity of >90%. ssDNA (5'-[sequence]-3', Hangzhou Yocon Biotechnology Co., Ltd.) was ordered as the substrate for the Pol θ protein; and a reaction buffer containing 10 mM DTT (Dithiothreitol), 20 mM MgCl2 and Tris-HCl pH 7.5 was prepared. • 2) The 2x ssDNA-Pol θ premix was prepared; the reaction was conducted in a 384-well plate; a control group with only buffer is set, and the premix was added to the rest of the groups.

[2] = ATPase activity, ADP-Glo, ssDNA substrate, 60 min at room temperature, initial concentration 10 µM, read-out: Biochemical experiment IC50

Row | SMILES | IC50 (DLD1 wild type) [nM] | IC50 (DLD1 BRCA2-/- cells) [nM] | IC50 [1] [nM] | IC50 [1, 2] [nM]
1 | COc1cnc(C(F)F)cc1-c1cc(-n2cccc(F)c2=O)ncc1C(=O)Nc1nc(C2CC2)ns1 [Example 1, N-(3-cyclopropyl-1,2,4-thiadiazol-5-yl)-2"-difluoromethyl-3-fluoro-5"-methoxy-2-oxo-2H-[1,2':4',4"-tripyridin]-5'-carboxamide] | > 50000 | 48.2 | 6.92 | –
2 | COc1cnc(C(F)F)cc1-c1cc(-n2cccc(F)c2=O)ncc1C(=O)Nc1nc(-c2ccncc2)cs1 [Example 2, 2"-(difluoromethyl)-3-fluoro-5"-methoxy-2-oxo-N-(4-(pyridin-4-yl)thiazol-2-yl)-2H-[1,2':4',4"-terpyridine]-5'-carboxamide] | > 50000 | 41.2 | – | 5.58
3 | COc1cnc(C(F)F)cc1-c1cc(-n2cccc(F)c2=O)ncc1C(=O)Nc1nc(C2CC2)cs1 [Example 3, N-(4-cyclopropylthiazol-2-yl)-2"-(difluoromethyl)-3-fluoro-5"-methoxy-2-oxo-2H-[1,2':4',4"-terpyridine]-5'-carboxamide] | > 50000 | 79.4 | – | 10.3
4 | COc1cnc(C(F)F)cc1-c1cc(-n2cccc(F)c2=O)ncc1C(=O)Nc1nccs1 [Example 4, 2"-(difluoromethyl)-3-fluoro-5"-methoxy-2-oxo-N-(thiazol-2-yl)-2H-[1,2':4',4"-terpyridine]-5'-carboxamide] | > 50000 | 43 | – | 20.9
5 | COc1cnc(Cl)cc1-c1cc(C)ncc1C(=O)Nc1nc(C2CC2)ns1 [Example 5, 2'-chloro-N-(3-cyclopropyl-1,2,4-thiadiazol-5-yl)-5'-methoxy-6-methyl-[4,4'-bipyridine]-3-carboxamide] | > 50000 | – | – | 132
6 | COc1cnc(C(F)F)cc1-c1cc(-n2cccc(F)c2=O)ncc1C(=O)Nc1nc(C(C)(C)C)ns1 [Example 6, N-(3-(tert-butyl)-1,2,4-thiadiazol-5-yl)-2"-(difluoromethyl)-3-fluoro-5"-methoxy-2-oxo-2H-[1,2':4',4"-terpyridine]-5'-carboxamide] | > 50000 | 52.1 | – | 15.2
7 | COc1nsc(NC(=O)c2cnc(-n3cccc(F)c3=O)cc2-c2cc(C(F)F)ncc2OC)n1 [Example 7, 2"-(difluoromethyl)-3-fluoro-5"-methoxy-N-(3-methoxy-1,2,4-thiadiazol-5-yl)-2-oxo-2H-[1,2':4',4"-terpyridine]-5'-carboxamide] | > 50000 | 56.2 | – | 4.02
8 | COc1cnc(C(F)F)cc1-c1cc(-n2cccc(F)c2=O)ncc1C(=O)Nc1nc(-c2ccccn2)ns1 [Example 8, 2"-(difluoromethyl)-3-fluoro-5"-methoxy-2-oxo-N-(3-(pyridin-2-yl)-1,2,4-thiadiazol-5-yl)-2H-[1,2':4',4"-terpyridine]-5'-carboxamide] | 19200 | 56.2 | – | 8.23
9 | COc1cnc(C(F)F)cc1-c1cc(-n2cccc(F)c2=O)ncc1C(=O)Nc1nc(-c2ccccc2)ns1 [Example 9, 2"-(difluoromethyl)-3-fluoro-5"-methoxy-2-oxo-N-(3-phenyl-1,2,4-thiadiazol-5-yl)-2H-[1,2':4',4"-terpyridine]-5'-carboxamide] | > 50000 | 32.9 | – | 13.4
10 | COc1cnc(C(F)F)cc1-c1cc(-n2cccc(F)c2=O)ncc1C(=O)Nc1ncns1 [Example 10, 2"-(difluoromethyl)-3-fluoro-5"-methoxy-2-oxo-N-(1,2,4-thiadiazol-5-yl)-2H-[1,2':4',4''-terpyridine]-5'-carboxamide] | > 50000 | 89.1 | – | 5.81
11 | COc1cnc(C(F)F)cc1-c1cc(-n2cccc(F)c2=O)ncc1C(=O)Nc1nc(C)ns1 [Example 11, 2"-(difluoromethyl)-3-fluoro-5"-methoxy-N-(3-methyl-1,2,4-thiadiazol-5-yl)-2-oxo-2H-[1,2':4',4"-terpyridine]-5'-carboxamide] | > 50000 | 171 | – | 14
12 | COc1cnc(C(F)F)cc1-c1cc(-n2cccc(F)c2=O)ncc1C(=O)Nc1nc(-c2ccc(F)cc2)ns1 [Example 12, 2"-(difluoromethyl)-3-fluoro-N-(3-(4-fluorophenyl)-1,2,4-thiadiazol-5-yl)-5"-methoxy-2-oxo-2H-[1,2':4',4"-terpyridine]-5'-carboxamide] | 23300 | 25.1 | – | –
13 | COc1cnc(C(F)F)cc1-c1cc(-n2cccc(F)c2=O)ncc1C(=O)Nc1nc(-c2cccnc2)ns1 [Example 13, 2"-(difluoromethyl)-3-fluoro-5"-methoxy-2-oxo-N-(3-(pyridin-3-yl)-1,2,4-thiadiazol-5-yl)-2H-[1,2':4',4"-terpyridine]-5'-carboxamide] | > 50000 | 54.1 | – | 17.6
14 | COc1cnc(C(F)F)cc1-c1cc(-n2cccc(F)c2=O)ncc1C(=O)Nc1nc(-c2c(C)cnn2C)ns1 [Example 14, 2"-(difluoromethyl)-N-(3-(1,4-dimethyl-1H-pyrazol-5-yl)-1,2,4-thiadiazol-5-yl)-3-fluoro-5"-methoxy-2-oxo-2H-[1,2':4',4"-terpyridine]-5'-carboxamide] | > 50000 | 4.82 | – | 3.63
15 | COc1cnc(C(F)F)cc1-c1cc(-n2cccc(F)c2=O)ncc1C(=O)Nc1nc(-c2ccncc2)ns1 [Example 15, 2"-(difluoromethyl)-3-fluoro-5"-methoxy-2-oxo-N-(3-(pyridin-4-yl)-1,2,4-thiadiazol-5-yl)-2H-[1,2':4',4"-terpyridine]-5'-carboxamide] | > 5000 | 10.8 | – | 5.58
16 | CCCc1nsc(NC(=O)c2cnc(-n3cccc(F)c3=O)cc2-c2cc(C(F)F)ncc2OC)n1 [Example 16, 2"-(difluoromethyl)-3-fluoro-5"-methoxy-2-oxo-N-(3-propyl-1,2,4-thiadiazol-5-yl)-2H-[1,2':4',4"-terpyridine]-5'-carboxamide] | > 5000 | 10 | – | 9.69
17 | COc1cnc(C(F)F)cc1-c1cc(-n2cccc(F)c2=O)ncc1C(=O)Nc1nc(C(C)C)ns1 [Example 17, 2"-(difluoromethyl)-3-fluoro-N-(3-isopropyl-1,2,4-thiadiazol-5-yl)-5"-methoxy-2-oxo-2H-[1,2':4',4"-terpyridine]-5'-carboxamide] | > 5000 | 3.98 | – | 8.98
18 | COc1cnc(C(F)F)cc1-c1cc(-n2cccc(F)c2=O)ncc1C(=O)Nc1nc(-c2ncccn2)ns1 [Example 18, 2"-(difluoromethyl)-3-fluoro-5"-methoxy-2-oxo-N-(3-(pyrimidin-2-yl)-1,2,4-thiadiazol-5-yl)-2H-[1,2':4',4"-terpyridine]-5'-carboxamide] | 4300 | 5.62 | – | 25.1
19 | COc1cnc(C(F)F)cc1-c1cc(-n2cccc(F)c2=O)ncc1C(=O)Nc1nc(-c2cnccn2)ns1 [Example 19, 2"-(difluoromethyl)-3-fluoro-5"-methoxy-2-oxo-N-(3-(pyrazin-2-yl)-1,2,4-thiadiazol-5-yl)-2H-[1,2':4',4"-terpyridine]-5'-carboxamide] | > 5000 | 56.2 | – | 32.1
20 | COc1cnc(C(F)F)cc1-c1cc(-n2cccc(F)c2=O)ncc1C(=O)Nc1nc(Cl)ns1 [Example 20, N-(3-chloro-1,2,4-thiadiazol-5-yl)-2"-(difluoromethyl)-3-fluoro-5"-methoxy-2-oxo-2H-[1,2':4',4"-terpyridine]-5'-carboxamide] | > 5000 | 22.4 | – | 8.31
21 | COc1cnc(Cl)cc1-c1cc(-n2cccc(F)c2=O)ncc1C(=O)Nc1nc(C2CC2)ns1 [Example 21, 2"-chloro-N-(3-cyclopropyl-1,2,4-thiadiazol-5-yl)-3-fluoro-5"-methoxy-2-oxo-2H-[1,2':4',4"-terpyridine]-5'-carboxamide] | > 5000 | 7.64 | – | 8.57
22 | COc1cnc(C(F)F)cc1-c1cc(-n2cccc(F)c2=O)ncc1C(=O)Nc1nc(-c2c(C)noc2C)ns1 [Example 22, 2"-(difluoromethyl)-N-(3-(3,5-dimethylisoxazol-4-yl)-1,2,4-thiadiazol-5-yl)-3-fluoro-5"-methoxy-2-oxo-2H-[1,2':4',4"-terpyridine]-5'-carboxamide] | > 5000 | 5.01 | – | 3.41
23 | COc1cnc(C(F)F)cc1-c1cc(-n2cccc(F)c2=O)ncc1C(=O)Nc1nc(N2CC3CC(C2)N3)ns1 [Example 27, N-(3-(3,6-diazabicyclo[3.1.1]heptan-3-yl)-1,2,4-thiadiazol-5-yl)-2"-(difluoromethyl)-3-fluoro-5"-methoxy-2-oxo-2H-[1,2':4',4"-terpyridin]-5'-carboxamide] | > 5000 | – | – | 158
24 | COc1cnc(C(F)F)cc1-c1cc(-n2cccc(F)c2=O)ncc1C(=O)Nc1nc(N2CC3CC(C2)N3C)ns1 [Example 29, 2"-(difluoromethyl)-3-fluoro-5"-methoxy-N-(3-(6-methyl-3,6-diazabicyclo[3.1.1]heptan-3-yl)-1,2,4-thiadiazol-5-y)-2-oxo-2H-[1,2':4',4"-terpyridin]-5'-carboxamide] | > 5000 | – | 244 | –
25 | COc1cnc(C(F)F)cc1-c1cc(-n2cccc(F)c2=O)ncc1C(=O)Nc1nc(N)ns1 [Example 30, N-(3-amino-1,2,4-thiadiazol-5-yl)-2"-(difluoromethyl)-3-fluoro-5"-methoxy-2-oxo-2H-[1,2':4',4"-terpyridin]-5'-carboxamide] | > 5000 | – | – | 34.1
26 | COc1cnc(C(F)F)cc1-c1cc(-n2cccc(F)c2=O)ncc1C(=O)Nc1nc(NC(C)=O)ns1 [Example 31, N-(3-acetamino-1,2,4-thiadiazol-5-yl)-2"-(difluoromethyl)-3-fluoro-5"-methoxy-2-oxo-2H-[1,2':4',4"-terpyridin]-5'-carboxamide] | > 5000 | – | – | 14.4
